Laboratory results reported in the supplement of paper PMC4862054.

Assays:
Settings in all cases: incubation time: 72 h
CAL-85-1 [1] = test: normalised viability (% of control), CellTiter-Blue; higher = more viable cells (about 100 = DMSO control)
Experimental: (§1)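 DSRT, CellTiter-Blue viability, 72 h incubation. Signal is normalised to DMSO and benzethonium chloride controls. Value is the normalised response at dose 6.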

CAL-148 [2] = test: as above
Experimental: as §1

HDQ-P1 [3] = test: as above
Experimental: as §1

CAL-51 [4] = test: as above
Experimental: as §1

MDA-MB-453 [5] = test: as above
Experimental: as §1

DU-4475 [6] = test: as above
Experimental: as §1

MDA-MB-231 [7] = test: normalised response (% of control), CellTox Green; higher = less cell death (100 = DMSO, 0 = benzethonium chloride kill control)
Procedure, shortened: (§2)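 Values are normalised signals, each belonging to one concentration of the series. Breast cancer cells (20 µl suspension) were seeded into 384-well plates with compound at 5 concentrations in 10-fold steps over a compound-specific 10,000-fold range and incubated 72 h. Readouts were CellTox Green fluorescence (485/520 nm), then CellTiter-Glo luminescence after 10 min at room temperature, with each plate set to 0.1 % DMSO as 100 and a positive kill control as 0.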

BT-549 [8] = test: as above
Procedure, shortened: as §2

CAL-85-1 [9] = test: as above
Procedure, shortened: as §2

HCC1599 [10] = test: as above
Procedure, shortened: as §2

CAL-148 [11] = test: as above
Procedure, shortened: as §2

BT-474 [12] = test: as above
Procedure, shortened: as §2

HDQ-P1 [13] = test: as above
Procedure, shortened: as §2

MDA-MB-468 [14] = test: as above
Procedure, shortened: as §2

MDA-MB-436 [15] = test: as above
Procedure, shortened: as §2

HCC1143 [16] = test: as above
Procedure, shortened: as §2

CAL-120 [17] = test: as above
Procedure, shortened: as §2

CAL-51 [18] = test: as above
Procedure, shortened: as §2

MDA-MB-453 [19] = test: as above
Procedure, shortened: as §2

HCC1937 [20] = test: as above
Procedure, shortened: as §2

DU-4475 [21] = test: as above
Procedure, shortened: as §2

MCF-10A [22] = test: as above
Procedure, shortened: as §2

MFM-223 [23] = test: as above
Procedure, shortened: as §2

Hs578T [24] = test: as above
Procedure, shortened: as §2

MDA-MB-231 [25] = test: normalised response (% of control), CellTiter-Glo; higher = more viable cells (100 = DMSO, 0 = benzethonium chloride kill control)
Experimental: (§3)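 DSRT, 72 h incubation, CellTox Green / CellTiter-Glo readout. Signal is normalised to DMSO and benzethonium chloride controls. Value is the normalised response at the highest dose.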

BT-549 [26] = test: as above
Experimental: as §3

CAL-85-1 [27] = test: as above
Experimental: as §3

HCC1599 [28] = test: as above
Experimental: as §3

CAL-148 [29] = test: as above
Experimental: as §3

BT-474 [30] = test: as above
Experimental: as §3

SK-BR-3 = test: as above
Experimental: as §3

HDQ-P1 [31] = test: as above
Experimental: as §3

MDA-MB-468 [32] = test: as above
Experimental: as §3

MDA-MB-436 [33] = test: as above
Experimental: as §3

HCC1143 [34] = test: as above
Experimental: as §3

CAL-120 [35] = test: as above
Experimental: as §3

CAL-51 [36] = test: as above
Experimental: as §3

MDA-MB-453 [37] = test: as above
Experimental: as §3

HCC1937 [38] = test: as above
Experimental: as §3

DU-4475 [39] = test: as above
Experimental: as §3

MCF-10A [40] = test: as above
Experimental: as §3

MFM-223 [41] = test: as above
Experimental: as §3

Hs578T [42] = test: as above
Experimental: as §3

Compound: CN1CCC(COc2cnc(-c3cccc(Cn4nc(-c5cccc(C#N)c5)ccc4=O)c3)nc2)CC1 (300 nM)
- normalised viability (CAL-85-1 [1]): 93.4%
- normalised viability (CAL-148 [2]): 86.9%
- normalised viability (HDQ-P1 [3]): 81.3%
- normalised viability (CAL-51 [4]): 101%
- normalised viability (MDA-MB-453 [5]): 94.5%
- normalised viability (DU-4475 [6]): 105%

Compound: CN(C)C/C=C/C(=O)Nc1cc2c(Nc3ccc(F)c(Cl)c3)ncnc2cc1O[C@H]1CCOC1 [Afatinib] (300 nM)
- normalised viability (CAL-85-1 [1]): 52.9%
- normalised viability (CAL-148 [2]): 74.2%
- normalised viability (HDQ-P1 [3]): 46.1%
- normalised viability (CAL-51 [4]): 101%
- normalised viability (MDA-MB-453 [5]): 36.5%
- normalised viability (DU-4475 [6]): 84.6%

Compound: COc1cc(Nc2ncc3c(n2)-c2ccc(Cl)cc2C(c2c(F)cccc2OC)=NC3)ccc1C(=O)O [Alisertib] (10000 nM)
- normalised response (MDA-MB-231 [7]): 79.3%
- normalised response (BT-549 [8]): 63%
- normalised response (CAL-85-1 [9]): 91.2%
- normalised response (HCC1599 [10]): 93.1%
- normalised response (CAL-148 [11]): 63.4%
- normalised response (BT-474 [12]): 43.6%
- normalised response (HDQ-P1 [13]): 94.7%
- normalised response (MDA-MB-468 [14]): -5.36%
- normalised response (MDA-MB-436 [15]): 78.5%
- normalised response (HCC1143 [16]): 76%
- normalised response (CAL-120 [17]): 96.5%
- normalised response (CAL-51 [18]): 11.4%
- normalised response (MDA-MB-453 [19]): 70.1%
- normalised response (HCC1937 [20]): 31.6%
- normalised response (DU-4475 [21]): 94%
- normalised response (MCF-10A [22]): -35.5%
- normalised response (MFM-223 [23]): 77.6%
- normalised response (Hs578T [24]): 114%
- normalised response (MDA-MB-231 [25]): 64.5%
- normalised response (BT-549 [26]): 37.2%
- normalised response (CAL-85-1 [27]): 90.5%
- normalised response (HCC1599 [28]): 81.5%
- normalised response (CAL-148 [29]): 49.7%
- normalised response (BT-474 [30]): 62%
- normalised response (SK-BR-3): 61.5%
- normalised response (HDQ-P1 [31]): 60.5%
- normalised response (MDA-MB-468 [32]): 24.1%
- normalised response (MDA-MB-436 [33]): 58.7%
- normalised response (HCC1143 [34]): 61.9%
- normalised response (CAL-120 [35]): 62.2%
- normalised response (CAL-51 [36]): 43.5%
- normalised response (MDA-MB-453 [37]): 122%
- normalised response (HCC1937 [38]): 64.5%
- normalised response (DU-4475 [39]): 74%
- normalised response (MCF-10A [40]): 61.4%
- normalised response (MFM-223 [41]): 36.7%
- normalised response (Hs578T [42]): 66.9%
